PubChem BioAssay (NCI)
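How tested: cells in 96-well plates exposed to compound for 48 hours at five concentrations. TGI: concentration producing complete growth inhibition.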

Assays:
Experiment in all cases: inhibition of tumour cell growth, NCI panel, 48 h
786-0 renal = system: 786-0 renal
A498 renal = system: A498 renal
A549 NSCLC = system: A549 NSCLC
ACHN renal = system: ACHN renal
BT-549 breast = system: BT-549 breast
CAKI-1 renal = system: CAKI-1 renal
CCRF-CEM leukemia = system: CCRF-CEM leukemia
COLO 205 colon = system: COLO 205 colon
DU-145 prostate = system: DU-145 prostate
EKVX NSCLC = system: EKVX NSCLC
HCC-2998 colon = system: HCC-2998 colon
HCT-116 colon = system: HCT-116 colon
HCT-15 colon = system: HCT-15 colon
HL-60(TB) leukemia = system: HL-60(TB) leukemia
HOP-62 NSCLC = system: HOP-62 NSCLC
HOP-92 NSCLC = system: HOP-92 NSCLC
HS 578T breast = system: HS 578T breast
HT29 colon = system: HT29 colon
IGROV1 ovarian = system: IGROV1 ovarian
KM12 colon = system: KM12 colon
LOX IMVI melanoma = system: LOX IMVI melanoma
M14 melanoma = system: M14 melanoma
MALME-3M melanoma = system: MALME-3M melanoma
MCF7 breast = system: MCF7 breast
MDA-MB-231 breast = system: MDA-MB-231 breast
MDA-MB-435 = system: MDA-MB-435
MDA-N = system: MDA-N
NCI-H226 lung = system: NCI-H226 lung
NCI-H23 lung = system: NCI-H23 lung
NCI-H460 lung = system: NCI-H460 lung
NCI-H522 lung = system: NCI-H522 lung
NCI/ADR-RES ovarian = system: NCI/ADR-RES ovarian
OVCAR-3 ovarian = system: OVCAR-3 ovarian
OVCAR-4 ovarian = system: OVCAR-4 ovarian
OVCAR-5 ovarian = system: OVCAR-5 ovarian
OVCAR-8 ovarian = system: OVCAR-8 ovarian
PC-3 prostate = system: PC-3 prostate
RPMI-8226 leukemia = system: RPMI-8226 leukemia
SF-268 CNS = system: SF-268 CNS
SF-295 CNS = system: SF-295 CNS
SF-539 CNS = system: SF-539 CNS
SK-MEL-2 melanoma = system: SK-MEL-2 melanoma
SK-MEL-28 melanoma = system: SK-MEL-28 melanoma
SK-MEL-5 melanoma = system: SK-MEL-5 melanoma
SK-OV-3 ovarian = system: SK-OV-3 ovarian
SN12C renal = system: SN12C renal
SNB-19 CNS = system: SNB-19 CNS
SNB-75 CNS = system: SNB-75 CNS
SW-620 colon = system: SW-620 colon
T-47D breast = system: T-47D breast
TK-10 renal = system: TK-10 renal
U251 CNS = system: U251 CNS
UACC-257 melanoma = system: UACC-257 melanoma
UACC-62 melanoma = system: UACC-62 melanoma
UO-31 renal = system: UO-31 renal

CSc1nc(SC)c2ncn(C3CC(Oc4ccc(C)cc4)C(COc4ccc(C)cc4)O3)c2n1 (stereo not given)
TGI (786-0 renal): > 100 µM
TGI (A498 renal): > 100 µM
TGI (A549 NSCLC): > 100 µM
TGI (ACHN renal): > 100 µM
TGI (BT-549 breast): > 100 µM
TGI (CAKI-1 renal): > 100 µM
TGI (CCRF-CEM leukemia): > 100 µM
TGI (COLO 205 colon): > 100 µM
TGI (DU-145 prostate): > 100 µM
TGI (EKVX NSCLC): > 100 µM
TGI (HCC-2998 colon): > 100 µM
TGI (HCT-116 colon): > 100 µM
TGI (HCT-15 colon): > 100 µM
TGI (HL-60(TB) leukemia): > 100 µM
TGI (HOP-62 NSCLC): > 100 µM
TGI (HOP-92 NSCLC): > 100 µM
TGI (HS 578T breast): > 100 µM
TGI (HT29 colon): > 100 µM
TGI (IGROV1 ovarian): > 100 µM
TGI (KM12 colon): > 100 µM
TGI (LOX IMVI melanoma): > 100 µM
TGI (M14 melanoma): > 100 µM
TGI (MALME-3M melanoma): > 100 µM
TGI (MCF7 breast): > 100 µM
TGI (MDA-MB-231 breast): > 100 µM
TGI (MDA-MB-435): > 100 µM
TGI (MDA-N): > 100 µM
TGI (NCI-H226 lung): > 100 µM
TGI (NCI-H23 lung): > 100 µM
TGI (NCI-H460 lung): > 100 µM
TGI (NCI-H522 lung): > 100 µM
TGI (NCI/ADR-RES ovarian): > 100 µM
TGI (OVCAR-3 ovarian): > 100 µM
TGI (OVCAR-4 ovarian): > 100 µM
TGI (OVCAR-5 ovarian): > 100 µM
TGI (OVCAR-8 ovarian): > 100 µM
TGI (PC-3 prostate): > 100 µM
TGI (RPMI-8226 leukemia): > 100 µM
TGI (SF-268 CNS): > 100 µM
TGI (SF-295 CNS): > 100 µM
TGI (SF-539 CNS): > 100 µM
TGI (SK-MEL-2 melanoma): > 100 µM
TGI (SK-MEL-28 melanoma): > 100 µM
TGI (SK-MEL-5 melanoma): > 100 µM
TGI (SK-OV-3 ovarian): > 100 µM
TGI (SN12C renal): > 100 µM
TGI (SNB-19 CNS): > 100 µM
TGI (SNB-75 CNS): > 100 µM
TGI (SW-620 colon): > 100 µM
TGI (T-47D breast): > 100 µM
TGI (TK-10 renal): > 100 µM
TGI (U251 CNS): > 100 µM
TGI (UACC-257 melanoma): > 100 µM
TGI (UACC-62 melanoma): > 100 µM
TGI (UO-31 renal): 7.61 µM
